# Data taken from US7553849B2, “Compounds” (Active Biotech AB, priority 2004, dated 2009).
# Test system: acute experimental autoimmune encephalomyelitis (aEAE)
# Test: Acute experimental autoimmune encephalomyelitis (aEAE) inhibition in mice
# Format: in vivo
# Conditions: for activity in the aEAE model (in words): mice, no dose stated; for aEAE inhibition (%): percent inhibition of clinical scores vs saline controls
# [1] = SJL/N female mice, dose 0.2 mg/kg po daily at days 3 to 7 and 10 to 12
# [2] = SJL/N female mice, dose 1.0 mg/kg po daily at days 3 to 7 and 10 to 12
# [3] = SJL/N female mice, dose 5.0 mg/kg po daily at days 3 to 7 and 10 to 12
SMILES,activity in the aEAE model (in words),aEAE inhibition (%) [1],aEAE inhibition (%) [2],further results
"O=C(Nc1cccnc1)c1c(O)c2ccsc2[nH]c1=O [6,7-dihydro-4-hydroxy-N-(3-pyridyl)-6-oxo-thieno[2,3-b]pyridine-5-carboxamide, reference compound]",inactive,,,
"Cc1csc2c1c(O)c(C(=O)N(C)c1ccccc1)c(=O)n2C [Compound #1, 6,7-dihydro-4-hydroxy-N-phenyl-N,3,7-trimethyl-6-oxo-thieno[2,3-b]pyridine-5-carboxamide]",,85%,99%,
"CCN(C(=O)c1c(O)c2c(C)csc2n(C)c1=O)c1ccccc1 [compound 2, 6,7-dihydro-3,7-dimethyl-N-ethyl-4-hydroxy-N-phenyl-6-oxo-thieno[2,3-b]pyridine-5-carboxamide]",,66%,84%,
"CCc1csc2c1c(O)c(C(=O)N(C)c1ccccc1)c(=O)n2C [compound 3, 6,7-dihydro-N,7-dimethyl-3-ethyl-4-hydroxy-N-phenyl-6-oxo-thieno[2,3-b]pyridine-5-carboxamide]",,84%,100%,
"COc1ccc(N(C)C(=O)c2c(O)c3c(C)csc3n(C)c2=O)cc1 [compound 6, 6,7-dihydro-4-hydroxy-N-(4-methoxyphenyl)-N,3,7-trimethyl-6-oxo-thieno[2,3-b]pyridine-5-carboxamide]",,92%,,
"Cc1scc2c1c(O)c(C(=O)N(C)c1ccccc1)c(=O)n2C [compound 10, 4,5-dihydro-7-hydroxy-N-phenyl-N,1,4-trimethyl-5-oxo-2-thia-4-aza-indene-6-carboxamide]",,,78%,aEAE inhibition (%) [3]: 95%
"CN(C(=O)c1c(O)c2ccsc2n(C)c1=O)c1ccccc1 [compound 11, 6,7-dihydro-N,7-dimethyl-4-hydroxy-N-phenyl-6-oxo-thieno[2,3-b]pyridine-5-carboxamide]",,,53%,
"CN(C(=O)c1c(O)c2sccc2n(C)c1=O)c1ccccc1 [compound 12, 4,5-dihydro-N,4-dimethyl-7-hydroxy-N-phenyl-5-oxo-thieno[3,2-b]pyridine-6-carboxamide, reference compound]",inactive,,,"aEAE inhibition (%), result in words (SJL/N female mice, dose 5.0 mg/kg po, class word defined in footnote): inactive*"
"Cc1csc2c1c(O)c(C(=O)N(C)c1cccnc1)c(=O)n2C [compound 13, 6,7-dihydro-4-hydroxy-N-(3-pyridyl)-N,3,7-trimethyl-6-oxo-thieno[2,3-b]pyridine-5-carboxamide, reference compound]",poorly active,,,aEAE inhibition (%) [3]: 46%
